Marks after values point to notes of the source that are not given here.
How the values were obtained:
[1] = assay type: physicochemical
Gram-positive bacteria = assay: MIC against Gram-positive bacteria; assay type: cell-based; details: most Gram (+)
Method: (§1) MIC determination assays. Staphylococcal aureus was grown to mid-log phase in LB at 37° C., and diluted by 500-fold with fresh LB and dispensed into 96-well micro-titer plates. Different concentrations of peptides were added, and the micro-titer plates were incubated at 37° C. with shaking. A minimal inhibition concentration (MIC) was determined as the lowest peptide concentration that produced a clear well. All experiments were performed in triplicates, and highly consistent MICs were obtained.
(§2) For Gram (−) the following were the antimicrobial activities observed: E. coli: MIC>20 microgram/ml; Pseudomonas and Salmonella: MIC>100 microgram/ml.

E. coli = assay: MIC against E. coli; assay type: cell-based
Method: as §1, §2

Pseudomonas = assay: MIC against Pseudomonas; assay type: cell-based
Method: as §1, §2

Salmonella = assay: MIC against Salmonella; assay type: cell-based
Method: as §1, §2

S. cerevisiae = assay: Antifungal MIC; assay type: cell-based
Tetrahymena = assay: Anti-protozoal MIC; assay type: cell-based
Broiler Chicken [2] = assay: Growth promoting Studies 1-1 and 1-2 (21-day battery study); assay type: in vivo
straight run broilers [3] = assay: Growth promoting Studies 2-1 and 2-2, mash feed, batteries; assay type: in vivo, chicken
Method: Briefly, the peptide was used in a semi-purified form to study the growth and feed conversion of […] old straight run broilers in batteries (Studies 2-1 and 2-2). Two amounts were tested against a feed control, peptide at 6 ppm and peptide at 12 ppm, 12 repetitions were carried out per treatment with 4 birds per pen. The diet used in the study was as follows.

straight run broilers [4] = assay: Growth promoting Studies 3-1 and 3-2, pelleted starter feed, batteries; assay type: in vivo, chicken
From the text: Eight (8) study repetitions per treatment were used, again with 4 birds per pen.

Broiler Chicken [5] = assay: Growth promoting Studies 4-1 and 4-2 with direct coccidial challenge; assay type: in vivo
[6] = Broiler floor pen trial, 42 days, natural colibacillosis challenge; assay type: in vivo, chicken
Method: A broiler floor pen trial to compare the performance of a new anti-microbial designated for this project as BT1583 alone and in combination with the widely used coccidiostat monensin (MON) to MON fed alone, MON in combination with the also widely used antimicrobial Bacitracin MD (BMD) and BMD alone.
The following levels of each treatment were evaluated:
The study design included 10 pens per treatment and 40 birds per pen housed on day of hatch. Two basal corn-soy based diets of decreasing protein (approximately 23 to 20%) and increasing metabolizable energy (approximately 1400 to 1455 kcal/lb) were used from Day 0 to 21 (starter feed) and Days 22 to 42 (grower feed), respectively. Treatment premixes were measured and blended into diets at required levels. Between days 0 and 21 mortality was less than 1% with all birds growing optimally and of high health across all groups.
Beginning on study day 22, the study director modulated house temperature and air flow to mimic industry conditions conducive to outbreaks of colibacillosis within naive broiler flocks. This was done to stimulate a natural challenge for this study. Mortality climbed to a house average of approximately 10% by Day 42. A majority of these deaths occurred in groups not receiving BT1583 or MON. Lesions were consistent with those of colibacillosis (air sac, pneumonia, peri-hepatitis, peri-carditis and extreme morbidity). All mortality was documented (weight at death and post-mortem observations). All birds and feeds were weighed at 42 days. All remaining birds were euthanized on Day 42 by asphyxiation with the carcasses submitted for rendering.
The following variables were tested: Response Variables: Gain Per Bird, Feed Per Gain, Mortality (%), Adjusted Feed Per Gain. F test from One Way ANOVA with one blocking factor=location, at Day 42 using 0.05 level of significance.
All Response Variables: LSD T-test procedure for pair-wise comparisons with Type 1 error of means when ANOVA F ratio is significant, overall significance level of 0.05 used. Lines below means (see Table 30, below) indicate groups with insignificant differences in means.
Adjusted Feed/Gain: The total weight of mortality in each pen was added to the final live weight, that value reduced by subtracting the initial weight and then dividing that value into the Total feed consumed to calculate the Adjusted Feed/Gain.

food-producing animals = assay: Growth promotion in food-producing animals (overall statement); assay type: in vivo, chicken
From the text: Furthermore, unlike conventional antibiotics, the present invention may target the bacterial membrane, and there is currently not a drug target that can be altered with one or two mutations to allow development of drug resistance. […] Alternatively, but in no way limiting the present invention, the present invention may be used as an animal-use only antibiotic for bacterial infections. Also, to date, there has been no observed decrease in the growth promoting activity of the peptide.

carboxypeptidase Y = target: T1, carboxypeptidase Y (Saccharomyces cerevisiae, UniProt P00729)
T1 sequence (P00729 112-532): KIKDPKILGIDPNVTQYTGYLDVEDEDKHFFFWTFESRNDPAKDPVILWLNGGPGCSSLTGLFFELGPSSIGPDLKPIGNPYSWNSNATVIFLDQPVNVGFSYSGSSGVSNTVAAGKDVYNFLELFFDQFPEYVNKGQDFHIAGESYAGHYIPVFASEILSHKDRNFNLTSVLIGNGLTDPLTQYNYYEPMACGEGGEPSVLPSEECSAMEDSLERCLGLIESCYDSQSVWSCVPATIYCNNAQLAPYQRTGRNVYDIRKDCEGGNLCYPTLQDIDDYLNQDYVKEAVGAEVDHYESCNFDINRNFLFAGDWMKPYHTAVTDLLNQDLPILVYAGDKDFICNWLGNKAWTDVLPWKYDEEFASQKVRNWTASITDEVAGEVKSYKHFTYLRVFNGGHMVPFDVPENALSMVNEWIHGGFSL

[7] = Study 3-2, 12 ppm with Coban (vs Coban alone)
[8] = Study 4-1, 24 ppm with direct coccidial challenge
[9] = Study 4-2, 48 ppm with direct coccidial challenge
[10] = MON 99 ppm, BT1583 12 ppm, BMD 55 ppm, alone or combined

With “Me2Bmt-L-dO-I-V-V-dK-V-dL-K-dY-L-Vol [BT1583]” the “only known in vitro method to inactivate” value [1] was “pH 1.0 plus 100 °C overnight”, the MIC (Gram-positive bacteria) was 1 microgram/ml and the MIC (E. coli) was > 20 microgram/ml. The MIC (Pseudomonas) was > 100 microgram/ml, the MIC (Salmonella) was > 100 microgram/ml and the MIC (S. cerevisiae) was 50 microgram/ml. The MIC (Tetrahymena) was 25 microgram/ml, the “Additional weight gain (%)” value (Broiler Chicken [2]; Study 1-1, 10 ppm) was 17% and the “Feed conversion improvement (point)” value (Broiler Chicken [2]; Study 1-1, 10 ppm) was 7 point. For the same substance, the “Additional weight gain (%)” value (Broiler Chicken [2]; Study 1-2, 30 ppm) was 17%, the “Feed conversion improvement (point)” value (Broiler Chicken [2]; Study 1-2, 30 ppm) was 8 point and the “Additional weight gain (%)” value (straight run broilers [3]; Study 2-1, 6 ppm) was 6.7%. The “Feed conversion improvement (point)” value (straight run broilers [3]; Study 2-1, 6 ppm) was 9 point, the “Additional weight gain (%)” value (straight run broilers [3]; Study 2-2, 12 ppm) was 11% and the “Feed conversion improvement (point)” value (straight run broilers [3]; Study 2-2, 12 ppm) was 10 point. The “20-day cumulative weight gain, Mean” value (straight run broilers [3]; Table 9, 6 ppm in feed) was 591.9750, the “20-day cumulative weight gain, Mean” value (straight run broilers [3]; Table 9, 12 ppm in feed) was 618.9340 and the “20-day cumulative weight gain, estimated marginal Mean” value (straight run broilers [3]; Table 11, 6 ppm in feed) was 591.975. For the same substance, the “20-day cumulative weight gain, estimated marginal Mean” value (straight run broilers [3]; Table 11, 12 ppm in feed) was 618.934, the “20-day cumulative weight gain, Duncan homogeneous subsets” value (straight run broilers [3]; Table 12, 6 ppm in feed) was 591.9750 and the “20-day cumulative weight gain, Duncan homogeneous subsets” value (straight run broilers [3]; Table 12, 12 ppm in feed) was 618.9340. The “20-day cumulative feed conversion rate, Mean” value (straight run broilers [3]; Table 13, 6 ppm in feed) was 1.5065, the “20-day cumulative feed conversion rate, Mean” value (straight run broilers [3]; Table 13, 12 ppm in feed) was 1.4959 and the “20-day cumulative feed conversion rate, estimated marginal Mean” value (straight run broilers [3]; Table 15, 6 ppm in feed) was 1.506. For the same substance, the “20-day cumulative feed conversion rate, estimated marginal Mean” value (straight run broilers [3]; Table 15, 12 ppm in feed) was 1.496, the “20-day cumulative feed conversion rate, Duncan homogeneous subsets” value (straight run broilers [3]; Table 16, 6 ppm in feed) was 1.5065 and the “20-day cumulative feed conversion rate, Duncan homogeneous subsets” value (straight run broilers [3]; Table 16, 12 ppm in feed) was 1.4959. The “Additional weight gain (%)” value (straight run broilers [4]; Study 3-1, 12 ppm) was 16%, the “Feed conversion improvement (point)” value (straight run broilers [4]; Study 3-1, 12 ppm) was 9 point and the “Additional weight gain (%)” value (straight run broilers [4]; [7]) was 5.4%. The “Feed conversion improvement (point)” value (straight run broilers [4]; [7]) was 9 point, the “20-day cumulative weight gain, Mean” value (straight run broilers [4]; Table 18, BT1583 12 ppm, BMD 50 ppm, COB 90 ppm, alone or combined) was 831.7396 and the “21-day cumulative weight gain, estimated marginal Mean” value (straight run broilers [4]; Table 20, BT1583 12 ppm, BMD 50 ppm, COB 90 ppm, alone or combined) was 831.740. The “21-day cumulative weight gain, Duncan homogeneous subsets” value (straight run broilers [4]; Table 21, BT1583 12 ppm, BMD 50 ppm, COB 90 ppm, alone or combined) was 831.7396, the “20-day cumulative feed conversion rate, Mean” value (straight run broilers [4]; Table 22, BT1583 12 ppm, BMD 50 ppm, COB 90 ppm, alone or combined) was 1.3308 and the “21-day cumulative feed conversion rate, estimated marginal Mean” value (straight run broilers [4]; Table 24, BT1583 12 ppm, BMD 50 ppm, COB 90 ppm, alone or combined) was 1.331. The “20-day cumulative feed conversion rate, Duncan homogeneous subsets” value (straight run broilers [4]; Table 25, BT1583 12 ppm, BMD 50 ppm, COB 90 ppm, alone or combined) was 1.3308, the “Additional weight gain (%)” value (Broiler Chicken [5]; [8]) was 7.1% and the “Feed conversion improvement (point)” value (Broiler Chicken [5]; [8]) was 13 point. The “Additional weight gain (%)” value (Broiler Chicken [5]; [9]) was 9.3%, the “Feed conversion improvement (point)” value (Broiler Chicken [5]; [9]) was 17 point and the efficacy against colibacillosis ([6]; 3 to 4 week old naive broiler chickens, simulated commercial conditions) was “highly effective”. For the same substance, the “feed/gain advantage over monensin and BMD fed alone and in combination” value ([6]; Day 42) was ≥ 10 point, the “weight gain advantage over monensin and BMD fed alone and in combination” value ([6]; Day 42) was ≥ 20 point and the “Day 42 Feed/Gain” value [6, 10] was 1.722^ab. The “Day 42 Gain/Bird” value [6, 10] was 4.333^ab lb, the “Day 42 Mortality (%)” value ([6]; acute and chronic colibacillosis, MON 99 ppm, BT1583 12 ppm, BMD 55 ppm) was 2.75^a % and the “Day 42 Adjusted Feed/Gain” value ([6]; adjusted for mortality weight, MON 99 ppm, BT1583 12 ppm, BMD 55 ppm) was 1.704^ab. The feed conversion improvement (food-producing animals) was “about 10 points” and the “cleavage by carboxypeptidase Y” value (carboxypeptidase Y) was “resistant”.

Reference: patent publication US7498404B2, “Compositions, methods and uses for a novel family of peptides” (priority 2004, dated 2009)
